Structures are written as SMILES. “And” between values parts separate entries of the source, which are not always exact repeats. Identical values can stand only once. Where only a bound is given, the exact number is not on record here.

Assay [1] concerns the target angiotensin II AT1 receptor. As to the kind of experiment: Assay A: Angiotensin II binding activity (125I-AII displacement, rat uterine membrane preparation).
The test system of a further assay is rabbit aortic rings. Briefly: Assay B: In vitro vascular smooth muscle response for AII (antagonist activity, pA2). The class given is cell-based. To be noted: in vitro vascular smooth muscle response, two values per cell separated by / are separate determinations; for Kb: Oryctolagus cuniculus, read-out: Assay B pA2 (converted). An outline of the steps:
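Endothelium-denuded thoracic aortic rings from male New Zealand white rabbits, in oxygenated Krebs at 37 °C under ~1 g tension; isometric contraction to AII (3×10^−10 to 1×10^−5 M).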

Another assay deals with pressor response to AII. As to the kind of experiment: Assay C: In vivo intragastric pressor assay response for AII antagonists. More on the design: species or system rat. To be noted: intragastric, or intraduodenal for examples listed; for Assay C Inhibition: dose cell empty (dose not given). An outline of the steps:
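Conscious male Sprague-Dawley rats with arterial and venous catheters received 30 ng/kg i.v. angiotensin II boluses before and at 30–180 min after gavage of compound (standard 3 mg/kg in 0.5% methylcellulose). Pressor rise in mmHg measured; percent inhibition calculated versus averaged control response at each time point.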

Setting [2] is: Rattus norvegicus, dose 3 mg/kg.
[3] abbreviates: Rattus norvegicus, dose 30 mg/kg.
[4] abbreviates: Rattus norvegicus, dose 10 mg/kg.

As for `CCCCc1nc(Cc2ccc(-c3ccccc3-c3nnn[nH]3)nc2)n(CCCC)n1` [Compound 150], in assay [1], the IC50 came to 14 nM. Besides, the Kb in the assay with rabbit aortic rings is 9.33 nM. In the assay on pressor response to AII (setting [2]), this compound yielded an inhibition at 3 mg/kg of 25%. For the same compound, in the assay on pressor response to AII (dose 3 mg/kg), the “Assay C Duration” value is >180 min.
For the compound `CCCCc1cn(-c2c(C)cc(C)cc2C)c(=O)n1Cc1ccc(-c2ccccc2-c2nnn[nH]2)cc1` [Compound 278], the IC50 in assay [1] stood at 30 nM. The “Assay B pA2” value in the assay on rabbit aortic rings is 8.49 and 8.51. This compound also returned an inhibition at 3 mg/kg in the assay with pressor response to AII (setting [2]) of 50%. For the same compound, the “Assay C Duration” value with pressor response to AII (dose 3 mg/kg) was >180 min.
`CCCn1nc(C(F)(F)CCC)nc1Cc1ccc(-c2ccccc2-c2nnn[nH]2)nc1` [Compound 169]: the IC50 in assay [1] came to 150 nM. Besides, the Kb in the assay on rabbit aortic rings was 16.6 nM. This compound also gave an inhibition at 3 mg/kg in the assay on pressor response to AII (setting [2]) of 15%. The “Assay C Duration” value in the assay on pressor response to AII (dose 3 mg/kg) was determined as 180 min.
Take `CCCCc1nc2cnncc2n1Cc1ccc(-c2ccccc2C(=O)O)cc1` [Compound 108]: in assay [1], the IC50 was determined as 720 nM. The Kb in the assay with rabbit aortic rings is 5010 nM. Also, in the assay on pressor response to AII (Rattus norvegicus, dose 100 mg/kg), the inhibition at 100 mg/kg is 45%. Further, the “Assay C Duration” value with pressor response to AII (dose 100 mg/kg) was determined as 90 min.
`CCCCc1nc(Cl)c(Cl)n1Cc1ccc(-n2cccc2C(=O)O)cc1` [Compound 147] registered a concentration for half-maximal inhibition (IC50) in assay [1] of 5.8 nM. Moreover, the Kb in the assay with rabbit aortic rings was 2510 nM. The compound also gave an inhibition at 3 mg/kg in the assay on pressor response to AII (setting [2]) of 74%. Further, in the assay with pressor response to AII (dose 3 mg/kg), the “Assay C Duration” value is 5 to 10 min.
Compound `CCCCc1nc(CCCC)n(Cc2ccc(-n3c(Cl)cc(Cl)c3-c3nnn[nH]3)cc2)n1` [Compound 143] yielded an IC50 in assay [1] of 0.052 nM. In addition, in the assay on rabbit aortic rings, the Kb was 20 nM. Further, in the assay on pressor response to AII, the “Assay C Inhibition” value worked out at 85%.
`CCCCc1cn(-c2c(OC)cccc2OC)c(=O)n1Cc1ccc(-c2ccccc2-c2nnn[nH]2)cc1` [Compound 273] came in with a 50% inhibitory concentration (IC50) in assay [1] of 9.8 nM. Besides, the “Assay B pA2” value in the assay on rabbit aortic rings was 8.53 and 8.61. Besides, the inhibition at 3 mg/kg with pressor response to AII (setting [2]) came out at 25%. Also, in the assay with pressor response to AII (dose 3 mg/kg), the “Assay C Duration” value is >180 min.
As for `CCCCc1cn(-c2c(CC)cccc2CC)c(=O)n1Cc1ccc(-c2ccccc2-c2nnn[nH]2)cc1` [Compound 276], in assay [1], the half-inhibitory concentration (IC50) was 33 nM. In addition, the “Assay B pA2” value in the assay with rabbit aortic rings was 8.71 and 8.64. Further, in the assay on pressor response to AII (setting [2]), the inhibition at 3 mg/kg is < 20%.
In assay [1], `CCCCc1nn(CCCc2ccccc2)c(=O)n1Cc1ccc(-c2ccccc2-c2nn[nH]n2)cc1` [Compound 81] yielded an IC50 of 18 nM. Moreover, in the assay with rabbit aortic rings, the Kb was 10 nM. Moreover, the “Assay C Inhibition” value in the assay with pressor response to AII is recorded as 40%.
The compound `CCCCc1cn(-c2c(C)cccc2Cl)c(=O)n1Cc1ccc(-c2ccccc2-c2nnn[nH]2)cc1` [Compound 274] came in with an IC50 in assay [1] of 13 nM. Moreover, in the assay on rabbit aortic rings, the “Assay B pA2” value was 9.06 and 8.85. Besides, the inhibition at 3 mg/kg with pressor response to AII (setting [2]) worked out at 35%. Besides, the “Assay C Duration” value in the assay on pressor response to AII (dose 3 mg/kg) was >180 min.
`CCCCc1nn(CC(O)c2ccccc2)c(=O)n1Cc1ccc(-c2ccccc2-c2nn[nH]n2)cc1` (centres unmarked) [Compound 83] returned an IC50 in assay [1] of 3.6 nM. Moreover, in the assay on rabbit aortic rings, the Kb was 5.01 nM. The “Assay C Inhibition” value in the assay on pressor response to AII is reported as 15%.
Consider `CCCCc1nn(CC(OCC(=O)O)c2ccccc2)c(=O)n1Cc1ccc(-c2ccccc2-c2nn[nH]n2)cc1` (centres unmarked) [Compound 91], for which the IC50 in assay [1] stood at 30 nM. Besides, the Kb with rabbit aortic rings is 2.51 nM. Further, the “Assay C Inhibition” value with pressor response to AII came to 40%.
Consider `CCCCc1nc2c(O)nnc(O)c2n1Cc1ccc(-c2ccccc2C(=O)O)cc1` [Compound 109], for which, in assay [1], the half-inhibitory concentration (IC50) is 250 nM. In addition, the Kb in the assay on rabbit aortic rings is 50.1 nM. Moreover, the inhibition at 30 mg/kg in the assay with pressor response to AII (setting [3]) came to 50%. In addition, the “Assay C Duration” value in the assay on pressor response to AII (dose 30 mg/kg) is 30 min.
On to `CCCCc1nn(CCCC)c(=O)n1Cc1ccc(-c2ccccc2C(=O)O)cc1` [Compound 78], for which, in assay [1], the IC50 amounted to 101 nM. Further, the Kb with rabbit aortic rings is 100 nM. In addition, the “Assay C Inhibition” value in the assay with pressor response to AII is listed as 93%.
Consider `CCCCc1nc(CCCC)n(Cc2ccc(-c3ccccc3-c3nnn[nH]3)cn2)n1` [Compound 239], for which the Kb with rabbit aortic rings was 13.2 nM. In the assay on pressor response to AII (setting [2]), this compound returned an inhibition at 3 mg/kg of 20%.
Consider `CCCCc1nc(Cl)nn1Cc1ccc(-c2ccccc2-c2nnn[nH]2)cc1` [compound 7], for which, in the assay with rabbit aortic rings, the Kb is 9.77 nM. The compound also returned an inhibition at 30 mg/kg in the assay with pressor response to AII (setting [3]) of 90%.
In the case of `CCCCc1nc2c(OC(=O)C(C)C)nnc(O)c2n1Cc1ccc(-c2ccccc2-c2nnn[nH]2)cc1` [Compound 119], the Kb with rabbit aortic rings is 0.617 nM. The same compound had an inhibition at 3 mg/kg in the assay with pressor response to AII (setting [2]) of 20%. In addition, the “Assay C Duration” value in the assay on pressor response to AII (dose 3 mg/kg) was 60 min.
Consider `CCCCc1cn(-c2c(C)cccc2C)c(=O)n1Cc1ccc(-c2ccccc2-c2nnn[nH]2)cc1` [Compound 275], for which the IC50 in assay [1] was 6.3 nM. Moreover, in the assay on rabbit aortic rings, the Kb is 0.851 nM. The same compound gave an inhibition at 3 mg/kg in the assay on pressor response to AII (setting [2]) of 40%. The “Assay C Duration” value in the assay on pressor response to AII (dose 3 mg/kg) is >180 min.
As to `CCCCn1nc(C(OCC)OCC)nc1Cc1ccc(-c2ccccc2-c2nnn[nH]2)nc1` [Compound 176], the IC50 in assay [1] was determined as 9.8 nM. Further, the Kb in the assay on rabbit aortic rings was 20.4 nM. The compound further had an inhibition at 3 mg/kg in the assay on pressor response to AII (setting [2]) of 10%. The “Assay C Duration” value with pressor response to AII (dose 3 mg/kg) came out at 150 min.
The corresponding values for `CCCCc1cn(CCc2ccccc2)c(=O)n1Cc1ccc(-c2ccccc2-c2nnn[nH]2)cc1` [Compound 133] are 10 nM, 2 nM, 20% and 180 min.
In assay [1], `CCCCc1cn(CCc2cccs2)c(=O)n1Cc1ccc(-c2ccccc2-c2nnn[nH]2)cc1` [Compound 134] gave an IC50 of 22 nM. The Kb in the assay on rabbit aortic rings was 0.501 nM. The same compound returned an inhibition at 3 mg/kg with pressor response to AII (setting [2]) of 35%. Also, the “Assay C Duration” value in the assay on pressor response to AII (dose 3 mg/kg) was determined as 180 min.
On the same counts, the results for `CCCCn1nc(CCC)nc1Cc1ccc(-c2ccccc2-c2nnn[nH]2)nc1` [Compound 152] are 150 nM, 34.7 nM, 10% and 140 min.
The corresponding values for `CCCCn1nc(-c2ccccc2Cl)nc1Cc1ccc(-c2ccccc2-c2nnn[nH]2)nc1` [Compound 158] are 54 nM, 5.89 nM, 30% and >180 min.
The corresponding values for `CCCCc1nc(C(=O)N(C)C(C)(C)C)nn1Cc1ccc(-c2ccccc2-c2nnn[nH]2)nc1` [Compound 255] are 12 nM, 24.5 nM, 20% and >180 min.
`CCCCc1cn(-c2ccccc2Cl)c(=O)n1Cc1ccc(-c2ccccc2-c2nnn[nH]2)cc1` [Compound 135] registered an IC50 in assay [1] of 16 nM. Further, the Kb with rabbit aortic rings was 3.16 nM. In the assay with pressor response to AII (setting [2]), this compound gave an inhibition at 3 mg/kg of 35%. Moreover, the “Assay C Duration” value with pressor response to AII (dose 3 mg/kg) is >180 min.
Turning to `CCCCc1nc(C(F)(F)CCC)n(Cc2ccc(-c3ccccc3-c3nnn[nH]3)nc2)n1` [Compound 248], in assay [1], the IC50 came to 20 nM. In addition, in the assay on rabbit aortic rings, the Kb is 20.9 nM. In the assay with pressor response to AII (setting [2]), this compound had an inhibition at 3 mg/kg of 10%.
In assay [1], `CCCCc1nc(C(=O)CCC)nn1Cc1ccc(-c2ccccc2-c2nnn[nH]2)cc1` [Compound 30] had an IC50 of 22 nM. In addition, the Kb in the assay on rabbit aortic rings is 18.6 nM. In addition, in the assay with pressor response to AII (setting [3]), testing at 30 mg/kg gave an inhibition of 50%. In the assay on pressor response to AII (dose 30 mg/kg), the “Assay C Duration” value was >180 min.
With `CCCCc1nc(C(F)(F)CCC)nn1Cc1ccc(-c2ccccc2-c2nnn[nH]2)nc1` [Compound 247], the IC50 in assay [1] came out at 9.4 nM. Also, the Kb in the assay on rabbit aortic rings was 5.5 nM. Moreover, the inhibition at 3 mg/kg in the assay on pressor response to AII (setting [2]) was found to be 20%. Besides, in the assay with pressor response to AII (dose 3 mg/kg), the “Assay C Duration” value came out at 180 min.
As for `CCCCc1nc2c(OC(=O)C3CCCCC3)nnc(O)c2n1Cc1ccc(-c2ccccc2-c2nnn[nH]2)cc1` [Compound 120], the Kb in the assay on rabbit aortic rings was 0.891 nM. This compound also gave an inhibition at 10 mg/kg with pressor response to AII (setting [4]) of 80%. Further, the “Assay C Duration” value in the assay on pressor response to AII (dose 10 mg/kg) was found to be 240 min.
`CCCCc1nn(CC(=O)OC(C)(C)C)c(=O)n1Cc1ccc(-c2ccccc2-c2nn[nH]n2)cc1` [Compound 84] returned an IC50 in assay [1] of 16 nM. In the assay on rabbit aortic rings, the Kb was 79.4 nM. Besides, in the assay on pressor response to AII, the “Assay C Inhibition” value is 20%.
With `CCCCc1nc(CCc2ccccc2)nn1Cc1ccc(-c2ccccc2-c2nnn[nH]2)cc1` [Compound 26], the 50% inhibitory concentration (IC50) in assay [1] was determined as 3.2 nM. Also, the Kb in the assay on rabbit aortic rings is 0.148 nM. For the same compound, in the assay on pressor response to AII (setting [4]), at 10 mg/kg the inhibition was 50%. Further, in the assay with pressor response to AII (dose 10 mg/kg), the “Assay C Duration” value is >180 min.

For orientation: IC50 means the concentration needed to halve the response being measured. A low value points to inhibition by little substance. The term inhibition denotes how much of the control response was suppressed. A high value points to a strong effect.
